This is an account of results in US20240293351A1, “METHODS OF ADMINISTERING SYNTHETIC TRITERPENOIDS” (REATA PHARMACEUTICALS HOLDINGS, LLC, priority 2020, published 2024).

Each structure is given as a SMILES string. Entries after “also recorded” stand apart in the source; their conditions may differ. Like-named read-outs stand apart in the source and are kept apart here.

One series deals with HIV. Conditions: macrophages; cited from earlier work.
For series [1] the following is noted: cited from earlier work.
A short description of series [2]: Drug-drug interaction study: bardoxolone methyl alone and with itraconazole in healthy volunteers. As to conditions: itraconazole alone, 200 mg daily (Period 2).
The nature of series [3]: Phase 1 drug-drug interaction study: omaveloxolone alone and with itraconazole in healthy subjects.
Series [4] relates to CYP3A4/5. Kind of series: in vitro. As to conditions: human, human liver microsomes.
Series [5] has as its system CYP3A4/5. Conditions: human liver microsomes and recombinantly-expressed CYPs.
For another series, the system named is cerebral granule neurons. Conditions: cited from earlier work.
Series [6] can be described thus: Storage stability of RTA 408 amorphous form under elevated temperature and humidity (PXRD). It is filed as physicochemical. As to conditions: open at 25° C./62% r.h. and 40° C./75% r.h., closed at 60° C. and 80° C., up to four weeks. The protocol: In addition, the stability of the amorphous form was investigated by storage under elevated temperature and humidity conditions (open at 25° C./62% r.h. and 40° C./75% r.h. and closed at 60° C. and 80° C.). After one week, two weeks, and four weeks, the stored samples were analyzed by PXRD.

The nature of series [7]: Chemical stability of RTA 408 amorphous form in organic solvents and aqueous media. The class given is physicochemical. As to conditions: 1 mg/mL; acetone, EtOAc, MeOH, MeCN, 1% aq. Tween 80, SDS, CTAB; 6 h, 24 h, 2 d, 7 d. The procedure:
The chemical stability of the amorphous form was investigated in organic solvents, including acetone, EtOAc, MeOH, and MeCN, as well as different aqueous media (e.g., 1% aq. Tween 80, 1% aq. SDS, 1% aq. CTAB) at a concentration of 1 mg/mL at time points 6 h, 24 h, 2 d, and 7 d.

A short description of series [8]: Hygroscopicity of RTA 408 solid forms (DVS, TGA-MS). It is filed as physicochemical.
The conditions of series [9]: monkey, in vivo; cited from earlier work.
For series [10] the following is noted: cited from earlier work; for Occurrence of Death / Occurrence of ESRD: ITT.
The mark [11] stands for this setting: 150 mg omaveloxolone alone (Reference), plasma.
The mark [12] stands for this setting: 200 mg itraconazole QD + 150 mg omaveloxolone (Test), plasma.
Setting [13] is: Test vs Reference statistical analysis.
Where [14] appears, read: Test: 200 mg itraconazole QD + 150 mg omaveloxolone, n = 13.
[15] abbreviates: omaveloxolone + itraconazole vs omaveloxolone alone.
Where [16] appears, read: ASCEND, avosentan 25 mg (N = 455).
Setting [17] is: ASCEND, avosentan 50 mg (N = 478).

Take `CC1(C)CC[C@]2(C(=O)O)CC[C@]3(C)[C@H](C(=O)C=C4[C@@]5(C)C=C(C#N)C(=O)C(C)(C)[C@@H]5CC[C@]43C)[C@@H]2C1` [CDDO, 2-cyano-3,12-dioxooleane-1,9(11)-dien-28-oic acid]: the “Replication of HIV” value in the series on HIV was “can inhibit the replication of HIV in macrophages”.
Take `CCC(C)n1ncn(-c2ccc(N3CCN(c4ccc(OCC5COC(Cn6cncn6)(c6ccc(Cl)cc6Cl)O5)cc4)CC3)cc2)c1=O` (stereo not shown) [itraconazole]: the “Peak plasma level at steady state” value in series [1] (100 mg once daily) was 0.5 µg/mL; in [1] (200 mg once daily) it was 1.1 µg/mL; in series [1] (200 mg twice daily), 2.0 µg/mL. Also, in series [1] (in vivo), the “Renal excretion of itraconazole and hydroxy-itraconazole” value is “less than 1 % of an intravenous dose”. In series [1] (repeated administration), the “Time to peak steady state” value is “about 15 days”. Besides, in [2], the “Subjects with a TEAE, n (%)” value is 1 (6.7%).
For the compound `CC1(C)CC[C@]2(NC(=O)C(C)(F)F)CC[C@]3(C)[C@H](C(=O)C=C4[C@@]5(C)C=C(C#N)C(=O)C(C)(C)[C@@H]5CC[C@]43C)[C@@H]2C1` [Omaveloxolone], in [3] (setting [11]), the “AUC0-t, geometric mean” value was 1730 ng·h/mL; the “AUC0-∞, geometric mean” value stood at 1730 ng·h/mL; the “CL/F, geometric mean” value came out at 86.7 L/h; the “Cmax, geometric mean” value came out at 43.0 ng/mL. Further, the “t1/2, geometric mean” value in series [3] (setting [11]) is listed as 89.8 h. Moreover, in series [3] (150 mg, itraconazole 200 mg QD), the “Increase in systemic exposure, AUC0-∞, with itraconazole” value is “approximately 4 fold”; the “Increase in systemic exposure, Cmax, with itraconazole” value is listed as around 3 fold; the “Ratio (90% CI) of geometric LS means, AUC0-∞ (with itraconazole vs alone)” value is on record as 4.12 (3.48, 4.87); the “Ratio (90% CI) of geometric LS means, Cmax (with itraconazole vs alone)” value is listed as 2.77 (2.17, 3.54). Also, in [3] (setting [12]), the “AUC0-t, geometric mean” value came to 6340 ng·h/mL; the “AUC0-∞, geometric mean” value is 7280 ng·h/mL; the “CL/F, geometric mean” value was 20.6 L/h; the “Cmax, geometric mean” value was determined as 116 ng/mL. The “t1/2, geometric mean” value in series [3] (setting [12]) is 78.1 h. In addition, the “AUC0-∞, GLSM” value in series [3] (Reference: 150 mg omaveloxolone alone, n = 14) is 1730 ng·h/mL. In addition, in series [3] (Reference: 150 mg omaveloxolone alone, n = 15), the “Cmax, GLSM” value is given as 43.0 ng/mL. Moreover, in series [3] (setting [13]), the “AUC0-∞, Within-subject CV %” value is reported as 24.4% and the “Cmax, Within-subject CV %” value turned out to be 36.8%. For the same compound, in series [3] (setting [14]), the “AUC0-∞, GLSM” value came out at 7130 ng·h/mL and the “Cmax, GLSM” value was 119 ng/mL. Besides, the half-life in series [3] (both, human, plasma, oral, 150 mg) was 89.8 h. Moreover, the Tmax in series [3] (both, human, plasma, oral, 150 mg, Median Tmax (min-max), 150 mg single dose, alone) was found to be 12 h. In series [3] (both, human, plasma, oral, 150 mg, tmax, median, Reference: 150 mg omaveloxolone alone, n = 15, Wilcoxon signed rank analysis), the Tmax came out at 8 h. The Tmax in series [3] (both, human, plasma, oral, Median Tmax (min-max), 150 mg co-administered with 200 mg itraconazole QD) was 6 h. In [3] (both, human, plasma, oral, tmax, median, Test: 200 mg itraconazole QD + 150 mg omaveloxolone, n = 13, Wilcoxon signed rank analysis), the Tmax stood at 6 h. In series [3] (human, in vivo), the “Within-subject variability of AUC0-∞, geometric CV %” value is recorded as 24.4% and the “Within-subject variability of Cmax, geometric CV %” value worked out at 36.8%. Further, in series [3] (setting [15]), the “AUC0-∞, Ratio of GLSMs (Test:Reference)” value is on record as 4.12 and the “Cmax, Ratio of GLSMs (Test:Reference)” value turned out to be 2.77. Also, the “Subjects reporting TEAEs” value in series [3] (omaveloxolone alone, 15 subjects) is recorded as 2 subjects. The “Subjects reporting TEAEs” value in [3] (omaveloxolone in combination with itraconazole) was “no subjects reported TEAEs”. In series [3] (whole study), the “Clinical laboratory evaluations, vital signs, ECG parameters” value was “no clinically significant findings” and the “Deaths or SAEs” value is given as “no deaths or SAEs”. Further, in the series on CYP3A4/5 [4], the Km is 1.12 µM. In addition, the Metabolizing enzyme entry with CYP3A4/5 [5] was “metabolized by CYP3A4”. In addition, the “Protection from hydrogen peroxide-induced oxidative stress” value with cerebral granule neurons is on record as “significant protection”.
In the case of `CC1(C)CC[C@]2(NC(=O)C(C)(F)F)CC[C@]3(C)[C@H](C(=O)C=C4[C@@]5(C)C=C(C#N)C(=O)C(C)(C)[C@@H]5CC[C@]43C)[C@@H]2C1` [RTA 408 amorphous form], the “Stability under elevated temperature and humidity conditions” value in [6] is “stable for at least four weeks; also recorded: None of the samples differed from the amorphous starting material”. In addition, the “Chemical stability, decomposition” value in [7] was “Decomposition ≥1% was observed only for solutions in MeCN after 7 days and for suspensions in the 1% aqueous Tween 80 medium”. Also, in [8] (DVS, 50%→85% r.h.), the “Hygroscopicity, Δm” value is given as “+0.4%”.
As for `COC(=O)[C@]12CCC(C)(C)C[C@H]1[C@H]1C(=O)C=C3[C@@]4(C)C=C(C#N)C(=O)C(C)(C)[C@@H]4CC[C@@]3(C)[C@]1(C)CC2` [Form B CDDO-Me], the Oral bioavailability result in [9] is “higher than that of Form A”.
In the case of `CC1(C)CC[C@]2(NC(=O)C(C)(F)F)CC[C@]3(C)[C@H](C(=O)C=C4[C@@]5(C)C=C(C#N)C(=O)C(C)(C)[C@@H]5CC[C@]43C)[C@@H]2C1`, in series [8] (from 50% r.h. to 85% r.h.), the “Hygroscopicity, mass gain” value was around 0.7 wt.-%.
On to `COc1ccccc1Oc1c(NS(=O)(=O)c2ccc(C)cn2)nc(-c2ccncc2)nc1OC` [avosentan], for which, in [10] (setting [16]), the “Occurrence of Death” value was 3.6% and the “Occurrence of ESRD” value is reported as 4.4%. In addition, in series [10] (setting [17]), the “Occurrence of Death” value is 4.6% and the “Occurrence of ESRD” value was 5.0%. Further, in series [10] (ASCEND), the Death result was “modest, non-significant increase in death” and the ESRD events entry was “small, numerical reduction in ESRD events”. In addition, the “Risk of congestive heart failure (CHF)” value in [10] (human, in vivo) is “approximate three-fold increase”.
